Literature values, collected in PMC9516332 (Frontiers in Oncology, 2022).

Tests used:
[1] = target: panel of 255 wild-type kinases (Homo sapiens, UniProt P08922); conditions: kinase ROS; 1 µmol/L single concentration; ref DOI: 10.1371/journal.pone.0092146; cited from earlier work
[2] = target: panel of 255 wild-type kinases (Homo sapiens, UniProt P19525); conditions: kinase PKR; 1 µmol/L single concentration; ref DOI: 10.1371/journal.pone.0092146; cited from earlier work
[3] = target: panel of 255 wild-type kinases (Homo sapiens, UniProt P23443); conditions: p70S6K; 1 µmol/L single concentration; ref DOI: 10.1371/journal.pone.0092146; cited from earlier work
[4] = target: panel of 255 wild-type kinases (Homo sapiens, UniProt P24941); conditions: 1 µmol/L single concentration, ref DOI: 10.1371/journal.pone.0092146, cited from earlier work
[5] = target: T1, panel of 255 wild-type kinases (Homo sapiens, UniProt P36888); conditions: kinase FLT3; 1 µmol/L single concentration; ref DOI: 10.1371/journal.pone.0092146; cited from earlier work
T1 sequence (P36888 27-993): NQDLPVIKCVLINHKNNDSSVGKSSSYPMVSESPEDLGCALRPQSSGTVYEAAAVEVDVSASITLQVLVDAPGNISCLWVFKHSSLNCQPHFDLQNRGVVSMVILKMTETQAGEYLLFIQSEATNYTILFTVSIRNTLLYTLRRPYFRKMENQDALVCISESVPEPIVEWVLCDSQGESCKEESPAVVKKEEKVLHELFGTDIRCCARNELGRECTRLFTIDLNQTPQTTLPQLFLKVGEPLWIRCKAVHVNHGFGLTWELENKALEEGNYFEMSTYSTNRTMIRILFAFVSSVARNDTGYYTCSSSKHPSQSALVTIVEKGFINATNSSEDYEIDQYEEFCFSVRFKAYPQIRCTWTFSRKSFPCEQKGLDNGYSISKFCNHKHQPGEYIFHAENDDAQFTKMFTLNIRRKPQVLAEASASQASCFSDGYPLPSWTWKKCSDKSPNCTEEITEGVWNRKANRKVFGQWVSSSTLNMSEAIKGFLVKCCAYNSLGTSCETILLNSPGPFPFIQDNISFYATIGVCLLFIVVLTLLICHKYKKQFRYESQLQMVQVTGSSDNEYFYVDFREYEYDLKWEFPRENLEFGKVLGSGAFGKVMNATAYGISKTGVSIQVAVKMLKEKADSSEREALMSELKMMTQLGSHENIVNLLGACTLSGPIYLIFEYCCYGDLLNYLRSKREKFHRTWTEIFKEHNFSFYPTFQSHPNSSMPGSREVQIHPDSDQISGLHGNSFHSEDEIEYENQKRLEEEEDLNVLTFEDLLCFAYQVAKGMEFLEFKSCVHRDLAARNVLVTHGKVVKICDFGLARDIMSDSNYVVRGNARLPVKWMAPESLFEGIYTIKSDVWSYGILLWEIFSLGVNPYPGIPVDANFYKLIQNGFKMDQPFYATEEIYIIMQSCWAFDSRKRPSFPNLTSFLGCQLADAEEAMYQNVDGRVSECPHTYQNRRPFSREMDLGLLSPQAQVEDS

[6] = target: panel of 255 wild-type kinases (Homo sapiens, UniProt Q00535); conditions: CDK5/p25 kinase assay; 1 µmol/L single concentration; ref DOI: 10.1371/journal.pone.0092146; cited from earlier work
[7] = target: panel of 255 wild-type kinases (Homo sapiens, UniProt Q04912); conditions: kinase RON; 1 µmol/L single concentration; ref DOI: 10.1371/journal.pone.0092146; cited from earlier work
[8] = target: T2, panel of 255 wild-type kinases (Homo sapiens, UniProt Q13976); conditions: kinase PGK; 1 µmol/L single concentration; ref DOI: 10.1371/journal.pone.0092146; cited from earlier work
T2 sequence (Q13976 1-671): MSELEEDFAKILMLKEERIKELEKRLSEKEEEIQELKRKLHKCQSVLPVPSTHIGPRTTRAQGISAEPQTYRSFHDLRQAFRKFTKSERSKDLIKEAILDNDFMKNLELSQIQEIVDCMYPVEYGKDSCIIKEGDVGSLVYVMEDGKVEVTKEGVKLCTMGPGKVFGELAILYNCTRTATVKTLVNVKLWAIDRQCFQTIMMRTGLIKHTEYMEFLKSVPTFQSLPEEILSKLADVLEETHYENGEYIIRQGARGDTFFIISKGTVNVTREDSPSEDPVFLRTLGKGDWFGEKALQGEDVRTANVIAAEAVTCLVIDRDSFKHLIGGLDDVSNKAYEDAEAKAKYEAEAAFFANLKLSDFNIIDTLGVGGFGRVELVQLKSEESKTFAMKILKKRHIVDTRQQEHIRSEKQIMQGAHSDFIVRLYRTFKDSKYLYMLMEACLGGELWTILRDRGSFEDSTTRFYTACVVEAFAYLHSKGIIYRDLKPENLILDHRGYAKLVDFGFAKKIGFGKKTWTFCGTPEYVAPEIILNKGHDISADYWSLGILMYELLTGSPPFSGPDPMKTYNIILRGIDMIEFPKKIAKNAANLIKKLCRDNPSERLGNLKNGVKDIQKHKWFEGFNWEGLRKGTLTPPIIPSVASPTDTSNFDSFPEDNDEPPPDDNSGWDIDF

[9] = target: panel of 255 wild-type kinases (Homo sapiens, UniProt Q8N4C8); conditions: MINK; 1 µmol/L single concentration; ref DOI: 10.1371/journal.pone.0092146; cited from earlier work

## CCCS(=O)(=O)Nc1ccc(F)c(C(=O)c2c[nH]c3ncc(-c4ccc(Cl)cc4)cc23)c1F [vemurafenib]
[1]
  %-inhibition at 1 µmol/L, ROS: 2%
[2]
  %-inhibition at 1 µmol/L, PKR: -0.765%
[3]
  %-inhibition, p70S6K: 9%
[4]; CDK2/CycA2 kinase assay
  %-inhibition CDK2/CycA2: -3%
[4]; CDK2/CycE1 kinase assay
  %-inhibition CDK2/CycE1: -5%
[5]
  %-inhibition at 1 µmol/L, FLT3: 10%
[6]
  %-inhibition CDK5/p25: 5%
[7]
  %-inhibition at 1 µmol/L, RON: -2%
[8]
  %-inhibition at 1 µmol/L, PGK: -4.33%
[9]
  %-inhibition, MINK: 10%
